Measurements published in ChEMBL document CHEMBL1150976, “The selectivity of protein kinase inhibitors: a further update” (Biochem J, 2007).
Values belong to the compound of their own block, whether it stands above or below them.

Tests used:
[1] = target: MAP/microtubule affinity-regulating kinase 3 (Homo sapiens) (UniProt P27448); assay: Percentage MARK3 activity remaining in the presence of 3uM inhibitor
[2] = target: T1, Protein kinase C zeta type (Homo sapiens) (UniProt Q05513); assay: Percentage PKCzeta activity remaining in the presence of 3uM inhibitor
T1 sequence (whole entry): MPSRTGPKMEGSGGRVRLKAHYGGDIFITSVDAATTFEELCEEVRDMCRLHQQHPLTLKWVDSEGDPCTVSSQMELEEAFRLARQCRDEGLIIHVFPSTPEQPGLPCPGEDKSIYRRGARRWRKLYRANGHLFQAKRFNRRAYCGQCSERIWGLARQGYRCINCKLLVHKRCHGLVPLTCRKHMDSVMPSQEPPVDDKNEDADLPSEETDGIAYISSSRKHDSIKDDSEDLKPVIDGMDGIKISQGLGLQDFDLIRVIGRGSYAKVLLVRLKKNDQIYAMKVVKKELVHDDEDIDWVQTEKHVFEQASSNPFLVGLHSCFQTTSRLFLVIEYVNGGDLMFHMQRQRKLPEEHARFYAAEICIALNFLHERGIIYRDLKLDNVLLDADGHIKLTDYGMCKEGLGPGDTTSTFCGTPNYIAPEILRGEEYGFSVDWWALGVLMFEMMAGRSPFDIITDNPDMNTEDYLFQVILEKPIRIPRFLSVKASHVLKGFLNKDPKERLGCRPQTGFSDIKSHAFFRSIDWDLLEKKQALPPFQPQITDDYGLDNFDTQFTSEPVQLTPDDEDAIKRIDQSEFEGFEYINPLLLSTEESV

[3] = target: T2, MAP kinase-activated protein kinase 5 (Homo sapiens) (UniProt Q8IW41); assay: Percentage PRAK activity remaining in the presence of 3uM inhibitor
T2 sequence (whole entry): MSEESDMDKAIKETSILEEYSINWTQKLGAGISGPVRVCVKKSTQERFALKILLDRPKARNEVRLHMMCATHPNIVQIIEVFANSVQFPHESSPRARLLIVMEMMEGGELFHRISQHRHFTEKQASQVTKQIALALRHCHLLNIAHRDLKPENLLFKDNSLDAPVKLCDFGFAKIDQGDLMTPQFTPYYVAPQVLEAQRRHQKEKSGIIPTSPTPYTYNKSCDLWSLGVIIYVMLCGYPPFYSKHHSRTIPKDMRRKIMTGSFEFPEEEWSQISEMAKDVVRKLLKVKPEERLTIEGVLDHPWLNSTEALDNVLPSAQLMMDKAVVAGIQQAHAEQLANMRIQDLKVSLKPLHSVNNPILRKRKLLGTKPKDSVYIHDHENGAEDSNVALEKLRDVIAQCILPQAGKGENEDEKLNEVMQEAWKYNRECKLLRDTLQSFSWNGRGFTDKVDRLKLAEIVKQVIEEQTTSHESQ

Aurora kinase B = Aurora kinase B (Homo sapiens, UniProt Q96GD4); assay: Percentage Aurora B activity remaining in the presence of 3uM inhibitor
[4] = target: T3, 3-phosphoinositide-dependent protein kinase 1 (Homo sapiens) (UniProt O15530); assay: Percentage PDK1 activity remaining in the presence of 3uM inhibitor
T3 sequence (whole entry): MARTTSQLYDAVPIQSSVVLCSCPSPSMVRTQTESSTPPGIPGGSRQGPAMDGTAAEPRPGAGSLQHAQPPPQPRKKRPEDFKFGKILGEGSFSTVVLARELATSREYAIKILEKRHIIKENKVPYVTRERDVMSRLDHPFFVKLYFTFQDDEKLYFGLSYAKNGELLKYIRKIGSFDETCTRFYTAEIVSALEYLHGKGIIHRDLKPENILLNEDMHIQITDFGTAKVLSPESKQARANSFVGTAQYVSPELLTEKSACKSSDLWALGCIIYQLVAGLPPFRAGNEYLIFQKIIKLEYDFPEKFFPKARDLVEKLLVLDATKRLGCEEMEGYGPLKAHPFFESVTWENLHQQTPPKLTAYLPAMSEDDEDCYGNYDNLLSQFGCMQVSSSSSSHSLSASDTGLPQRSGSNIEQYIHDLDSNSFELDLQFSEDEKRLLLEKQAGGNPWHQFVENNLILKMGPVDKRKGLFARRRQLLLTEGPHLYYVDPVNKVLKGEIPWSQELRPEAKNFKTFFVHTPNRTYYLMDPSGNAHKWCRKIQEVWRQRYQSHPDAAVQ

[5] = target: T4, Mitogen-activated protein kinase 12 (Homo sapiens) (UniProt P53778); assay: Percentage p38-gamma activity remaining in the presence of 3uM inhibitor
T4 sequence (whole entry): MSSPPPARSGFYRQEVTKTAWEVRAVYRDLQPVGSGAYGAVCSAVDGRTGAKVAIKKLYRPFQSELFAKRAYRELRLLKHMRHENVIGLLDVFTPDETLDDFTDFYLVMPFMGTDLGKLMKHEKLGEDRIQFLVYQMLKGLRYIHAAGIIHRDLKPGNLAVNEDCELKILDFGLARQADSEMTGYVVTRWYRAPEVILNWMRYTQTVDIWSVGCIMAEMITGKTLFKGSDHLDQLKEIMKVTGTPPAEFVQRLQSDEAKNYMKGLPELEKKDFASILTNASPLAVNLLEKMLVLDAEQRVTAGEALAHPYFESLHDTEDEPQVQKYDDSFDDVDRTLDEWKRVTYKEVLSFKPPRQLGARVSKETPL

[6] = target: Ribosomal protein S6 kinase alpha-1 (Homo sapiens) (UniProt Q15418); assay: Percentage RSK1 activity remaining in the presence of 3uM inhibitor
[7] = target: Serine/threonine-protein kinase N2 (Homo sapiens) (UniProt Q16513); assay: Percentage PRK2 activity remaining in the presence of 2uM inhibitor
[8] = target: T2, MAP kinase-activated protein kinase 5 (Homo sapiens); assay: Percentage PRAK activity remaining in the presence of 2uM inhibitor
[9] = target: T4, Mitogen-activated protein kinase 12 (Homo sapiens); assay: Percentage p38-gamma activity remaining in the presence of 2uM inhibitor
[10] = target: T5, Aurora kinase C (Homo sapiens) (UniProt Q9UQB9); assay: Percentage Aurora C activity remaining in the presence of 2uM inhibitor
T5 sequence (whole entry): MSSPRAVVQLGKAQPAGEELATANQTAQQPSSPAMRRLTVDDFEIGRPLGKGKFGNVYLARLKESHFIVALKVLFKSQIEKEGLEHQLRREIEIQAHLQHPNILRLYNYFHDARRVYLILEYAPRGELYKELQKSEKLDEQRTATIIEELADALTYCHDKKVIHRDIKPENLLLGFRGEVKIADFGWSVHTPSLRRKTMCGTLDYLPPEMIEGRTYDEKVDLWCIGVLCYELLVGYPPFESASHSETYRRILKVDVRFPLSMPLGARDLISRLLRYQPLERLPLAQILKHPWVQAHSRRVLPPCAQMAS

[11] = target: RAC-beta serine/threonine-protein kinase (Homo sapiens) (UniProt P31751); assay: Percentage PKBbeta activity remaining in the presence of 0.01uM inhibitor
Chain of RAC-beta serine/threonine-protein kinase (Homo sapiens) (P31751 whole entry): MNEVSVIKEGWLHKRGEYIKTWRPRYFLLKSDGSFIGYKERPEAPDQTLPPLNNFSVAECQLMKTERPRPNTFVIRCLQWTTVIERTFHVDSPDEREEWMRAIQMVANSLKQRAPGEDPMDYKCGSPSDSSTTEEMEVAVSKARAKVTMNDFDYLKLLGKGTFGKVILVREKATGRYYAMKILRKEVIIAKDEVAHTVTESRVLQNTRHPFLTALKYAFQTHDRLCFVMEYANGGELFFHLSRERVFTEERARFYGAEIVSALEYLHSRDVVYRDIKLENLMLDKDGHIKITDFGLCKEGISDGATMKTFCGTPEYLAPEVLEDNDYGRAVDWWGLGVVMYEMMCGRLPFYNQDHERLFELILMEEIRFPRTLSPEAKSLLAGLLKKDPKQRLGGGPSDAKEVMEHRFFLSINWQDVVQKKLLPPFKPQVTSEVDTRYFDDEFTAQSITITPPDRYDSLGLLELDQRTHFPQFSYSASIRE

Chain of Serine/threonine-protein kinase N2 (Homo sapiens) (Q16513 whole entry, looked up): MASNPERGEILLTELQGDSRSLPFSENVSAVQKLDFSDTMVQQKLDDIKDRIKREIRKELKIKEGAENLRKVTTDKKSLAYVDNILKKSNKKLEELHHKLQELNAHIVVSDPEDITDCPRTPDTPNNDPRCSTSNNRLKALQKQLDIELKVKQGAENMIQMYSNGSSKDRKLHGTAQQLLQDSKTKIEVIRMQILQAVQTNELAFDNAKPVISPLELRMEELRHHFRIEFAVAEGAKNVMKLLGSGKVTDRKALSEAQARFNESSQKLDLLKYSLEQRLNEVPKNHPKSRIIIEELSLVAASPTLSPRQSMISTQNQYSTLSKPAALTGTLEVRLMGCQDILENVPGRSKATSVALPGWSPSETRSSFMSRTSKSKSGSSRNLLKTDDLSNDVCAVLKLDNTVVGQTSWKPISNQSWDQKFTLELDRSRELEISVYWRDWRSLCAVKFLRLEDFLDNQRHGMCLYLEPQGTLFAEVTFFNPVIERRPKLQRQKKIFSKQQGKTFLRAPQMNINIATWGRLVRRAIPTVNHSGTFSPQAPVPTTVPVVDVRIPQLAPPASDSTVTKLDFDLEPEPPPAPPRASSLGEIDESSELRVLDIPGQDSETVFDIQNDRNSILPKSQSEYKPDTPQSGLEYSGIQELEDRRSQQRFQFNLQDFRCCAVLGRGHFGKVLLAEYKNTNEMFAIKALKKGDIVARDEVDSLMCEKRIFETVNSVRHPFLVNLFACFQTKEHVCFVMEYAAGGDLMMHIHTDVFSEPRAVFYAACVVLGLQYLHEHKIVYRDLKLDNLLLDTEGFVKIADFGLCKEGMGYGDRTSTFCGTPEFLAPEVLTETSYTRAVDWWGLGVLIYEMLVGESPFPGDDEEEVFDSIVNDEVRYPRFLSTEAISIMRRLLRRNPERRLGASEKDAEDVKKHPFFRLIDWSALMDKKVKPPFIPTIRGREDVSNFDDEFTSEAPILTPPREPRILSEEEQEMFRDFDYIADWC
Chain of Ribosomal protein S6 kinase alpha-1 (Homo sapiens) (Q15418 whole entry): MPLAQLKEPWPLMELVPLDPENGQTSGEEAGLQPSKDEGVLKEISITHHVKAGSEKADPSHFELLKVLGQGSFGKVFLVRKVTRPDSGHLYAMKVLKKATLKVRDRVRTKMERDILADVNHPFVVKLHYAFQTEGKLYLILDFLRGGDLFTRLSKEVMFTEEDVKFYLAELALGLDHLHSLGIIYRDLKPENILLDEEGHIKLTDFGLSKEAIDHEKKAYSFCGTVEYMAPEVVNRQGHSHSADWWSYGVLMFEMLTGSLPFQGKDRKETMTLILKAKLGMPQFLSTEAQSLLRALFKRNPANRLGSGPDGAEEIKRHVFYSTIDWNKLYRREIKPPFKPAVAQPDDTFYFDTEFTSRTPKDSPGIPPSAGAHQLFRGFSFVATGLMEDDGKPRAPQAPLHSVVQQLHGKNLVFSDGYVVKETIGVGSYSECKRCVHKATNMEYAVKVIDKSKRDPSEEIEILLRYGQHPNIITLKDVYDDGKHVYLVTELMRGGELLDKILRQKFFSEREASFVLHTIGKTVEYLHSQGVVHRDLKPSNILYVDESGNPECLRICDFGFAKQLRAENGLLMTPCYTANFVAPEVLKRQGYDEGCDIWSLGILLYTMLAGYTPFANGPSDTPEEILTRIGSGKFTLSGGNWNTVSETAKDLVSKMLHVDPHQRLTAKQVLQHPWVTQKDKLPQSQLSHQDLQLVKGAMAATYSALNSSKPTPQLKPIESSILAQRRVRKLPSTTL
Chain of MAP/microtubule affinity-regulating kinase 3 (Homo sapiens) (P27448 whole entry, looked up): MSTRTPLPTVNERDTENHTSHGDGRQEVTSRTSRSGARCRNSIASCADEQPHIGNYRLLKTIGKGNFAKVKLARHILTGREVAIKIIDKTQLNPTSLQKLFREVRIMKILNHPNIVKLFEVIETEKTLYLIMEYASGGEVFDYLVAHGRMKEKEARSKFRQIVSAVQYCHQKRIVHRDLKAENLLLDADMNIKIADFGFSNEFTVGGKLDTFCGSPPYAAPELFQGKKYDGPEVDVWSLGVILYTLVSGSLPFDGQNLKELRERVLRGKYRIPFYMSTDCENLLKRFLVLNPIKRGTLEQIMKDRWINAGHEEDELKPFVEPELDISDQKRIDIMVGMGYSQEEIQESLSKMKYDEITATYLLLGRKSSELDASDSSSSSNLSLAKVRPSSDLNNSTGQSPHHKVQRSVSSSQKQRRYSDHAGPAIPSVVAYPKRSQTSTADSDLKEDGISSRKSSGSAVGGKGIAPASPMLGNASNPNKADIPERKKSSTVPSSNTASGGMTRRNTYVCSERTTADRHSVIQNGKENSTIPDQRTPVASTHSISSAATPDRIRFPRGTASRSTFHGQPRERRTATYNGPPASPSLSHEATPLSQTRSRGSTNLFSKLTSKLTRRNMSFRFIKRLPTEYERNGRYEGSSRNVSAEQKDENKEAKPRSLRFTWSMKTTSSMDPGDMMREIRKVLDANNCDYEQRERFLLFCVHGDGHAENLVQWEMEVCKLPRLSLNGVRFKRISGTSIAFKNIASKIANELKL
Chain of Aurora kinase B (Q96GD4 whole entry): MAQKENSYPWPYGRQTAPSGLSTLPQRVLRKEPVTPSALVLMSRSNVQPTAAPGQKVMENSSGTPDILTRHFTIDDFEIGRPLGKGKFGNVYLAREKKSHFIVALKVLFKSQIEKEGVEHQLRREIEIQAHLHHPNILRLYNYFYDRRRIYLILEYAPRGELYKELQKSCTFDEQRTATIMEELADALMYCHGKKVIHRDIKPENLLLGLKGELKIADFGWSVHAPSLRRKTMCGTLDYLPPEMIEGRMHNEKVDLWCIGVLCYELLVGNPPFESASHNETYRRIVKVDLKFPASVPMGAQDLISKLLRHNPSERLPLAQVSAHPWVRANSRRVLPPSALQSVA

Activity [1]: 80%
Activity [2]: 91%
Activity [3]: 97%
Activity (Aurora kinase B): 59%
Activity [4]: 89%
Activity [5]: 92%
Activity [6]: 92%
Structure (SMILES): Cc1ccc(-c2c(C(=O)CF)n(CCCO)c3ncnc(N)c23)cc1

Activity [7]: 81%
Activity [8]: 90%
Activity [9]: 84%
Activity [10]: 79%
Structure (SMILES): Cn1cc(C2=C(c3ccc(Cl)cc3Cl)C(=O)NC2=O)c2ccccc21

Structure (SMILES): CN[C@@H]1C[C@H]2O[C@@](C)([C@@H]1OC)n1c3ccccc3c3c4c(c5c6ccccc6n2c5c31)C(=O)N[C@H]4O (stereo in doubt)
Activity [11]: 77%
